Test results taken from the kinase profiling compilation of Christmann-Franck et al. (2016).

Key:
Assay in all cases: Caliper, Mobility shift assay off-chip
ABL2 (human) = ABL2 (human) (UniProt P42684)
AKT1 (human) = AKT1 (human) (UniProt P31749)
AKT2 (human) = AKT2 (human) (UniProt P31751)
ALK (human) = ALK (human) (UniProt Q9UM73)
AURKC (human) = AURKC (human) (UniProt Q9UQB9)
CAMK2B (human) = CAMK2B (human) (UniProt Q13554)
CAMK2D (human) = CAMK2D (human) (UniProt Q13557); details: compound 1.0 µM
CDK1 (human) = CDK1 (human) (UniProt P06493)
Sequence of CDK1 (human) (P06493 whole entry, looked up): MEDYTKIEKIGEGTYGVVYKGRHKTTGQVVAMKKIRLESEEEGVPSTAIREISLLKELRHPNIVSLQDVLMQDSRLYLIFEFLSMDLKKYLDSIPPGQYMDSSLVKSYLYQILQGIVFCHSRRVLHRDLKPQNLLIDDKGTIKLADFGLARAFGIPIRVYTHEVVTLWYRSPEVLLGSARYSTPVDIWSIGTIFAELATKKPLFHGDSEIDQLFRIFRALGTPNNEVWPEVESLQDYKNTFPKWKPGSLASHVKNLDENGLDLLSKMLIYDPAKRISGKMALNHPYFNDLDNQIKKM

CDK2 (human) = CDK2 (human) (UniProt P24941)
CDK5 CDK5R1 p25 (human) = CDK5 CDK5R1 p25 (human) (UniProt Q15078+Q00535)
CHEK2 (human) = CHEK2 (human) (UniProt O96017)
DCLK2 (human) = DCLK2 (human) (UniProt Q8N568)
DYRK4 (human) = DYRK4 (human) (UniProt Q9NR20)
EPHB1 (human) = EPHB1 (human) (UniProt P54762)
FGFR3 (human) = FGFR3 (human) (UniProt P22607)
FLT3 (human) = FLT3 (human) (UniProt P36888)
[1] = test system: FLT3 (human), P36888 [D835Y]
JAK2 JH1 JH2 (human) = JAK2 JH1 JH2 (human) (UniProt O60674)
LYN (human) = LYN (human) (UniProt P07948)
Sequence of LYN (human) (P07948 whole entry, looked up): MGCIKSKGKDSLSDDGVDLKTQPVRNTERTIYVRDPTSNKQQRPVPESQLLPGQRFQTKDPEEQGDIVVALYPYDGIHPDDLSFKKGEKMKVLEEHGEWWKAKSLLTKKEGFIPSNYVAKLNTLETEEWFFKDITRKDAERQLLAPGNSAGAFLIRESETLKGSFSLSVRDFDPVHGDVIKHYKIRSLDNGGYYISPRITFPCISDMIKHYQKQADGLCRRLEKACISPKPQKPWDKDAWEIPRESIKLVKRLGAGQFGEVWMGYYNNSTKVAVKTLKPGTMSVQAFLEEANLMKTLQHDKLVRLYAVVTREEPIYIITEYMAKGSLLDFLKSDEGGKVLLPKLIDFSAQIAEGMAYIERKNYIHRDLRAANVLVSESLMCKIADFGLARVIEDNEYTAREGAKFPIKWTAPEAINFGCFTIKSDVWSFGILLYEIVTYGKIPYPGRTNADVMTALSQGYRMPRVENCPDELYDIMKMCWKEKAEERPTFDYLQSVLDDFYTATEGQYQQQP

MAPK1 (human) = MAPK1 (human) (UniProt P28482)
MAPK12 (human) = MAPK12 (human) (UniProt P53778)
MAPK13 (human) = MAPK13 (human) (UniProt O15264)
Sequence of MAPK13 (human) (O15264 whole entry, looked up): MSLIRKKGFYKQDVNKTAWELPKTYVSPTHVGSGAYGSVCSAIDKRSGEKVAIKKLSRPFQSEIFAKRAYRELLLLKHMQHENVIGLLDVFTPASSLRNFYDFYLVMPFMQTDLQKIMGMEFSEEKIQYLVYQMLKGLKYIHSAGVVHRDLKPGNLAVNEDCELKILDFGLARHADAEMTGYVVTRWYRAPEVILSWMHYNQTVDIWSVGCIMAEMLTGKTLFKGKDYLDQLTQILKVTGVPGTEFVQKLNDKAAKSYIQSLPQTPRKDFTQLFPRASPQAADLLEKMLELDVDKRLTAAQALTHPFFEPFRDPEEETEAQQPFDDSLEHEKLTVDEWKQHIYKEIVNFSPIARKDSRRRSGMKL

MAPKAPK3 (human) = MAPKAPK3 (human) (UniProt Q16644)
MAPKAPK5 (human) = MAPKAPK5 (human) (UniProt Q8IW41)
MARK2 (human) = MARK2 (human) (UniProt Q7KZI7)
MERTK (human) = MERTK (human) (UniProt Q12866)
PIM2 (human) = PIM2 (human) (UniProt Q9P1W9)
PRKCD (human) = PRKCD (human) (UniProt Q05655)
PRKD3 (human) = PRKD3 (human) (UniProt O94806)
PTK2B (human) = PTK2B (human) (UniProt Q14289)
Sequence of PTK2B (human) (Q14289 whole entry, looked up): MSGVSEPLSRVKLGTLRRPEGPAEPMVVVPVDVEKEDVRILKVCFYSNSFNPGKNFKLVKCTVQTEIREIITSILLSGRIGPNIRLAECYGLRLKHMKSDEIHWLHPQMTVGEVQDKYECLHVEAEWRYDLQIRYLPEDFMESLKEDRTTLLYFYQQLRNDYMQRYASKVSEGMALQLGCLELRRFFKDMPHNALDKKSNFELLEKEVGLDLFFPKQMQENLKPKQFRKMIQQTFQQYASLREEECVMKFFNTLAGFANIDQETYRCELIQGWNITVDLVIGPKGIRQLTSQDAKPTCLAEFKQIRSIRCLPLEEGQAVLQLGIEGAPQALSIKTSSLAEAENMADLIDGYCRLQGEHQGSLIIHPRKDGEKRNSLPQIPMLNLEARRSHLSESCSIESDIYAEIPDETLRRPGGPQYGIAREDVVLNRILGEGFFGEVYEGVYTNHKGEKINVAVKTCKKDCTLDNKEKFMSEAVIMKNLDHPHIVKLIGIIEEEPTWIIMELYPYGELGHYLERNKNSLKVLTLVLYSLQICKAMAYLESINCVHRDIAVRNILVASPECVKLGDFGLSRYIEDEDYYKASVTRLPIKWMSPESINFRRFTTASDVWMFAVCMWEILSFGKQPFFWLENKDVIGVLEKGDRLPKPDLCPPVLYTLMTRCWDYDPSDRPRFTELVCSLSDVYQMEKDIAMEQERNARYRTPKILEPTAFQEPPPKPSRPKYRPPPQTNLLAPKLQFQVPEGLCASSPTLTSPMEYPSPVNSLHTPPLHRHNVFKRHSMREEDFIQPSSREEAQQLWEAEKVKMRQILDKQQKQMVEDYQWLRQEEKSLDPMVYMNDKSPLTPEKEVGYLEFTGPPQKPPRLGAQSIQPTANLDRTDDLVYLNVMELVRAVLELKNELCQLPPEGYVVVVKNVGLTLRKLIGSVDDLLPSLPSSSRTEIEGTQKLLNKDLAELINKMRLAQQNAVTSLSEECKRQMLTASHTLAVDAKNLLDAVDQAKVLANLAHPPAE

ROCK1 (human) = ROCK1 (human) (UniProt Q13464)
Sequence of ROCK1 (human) (Q13464 whole entry, looked up): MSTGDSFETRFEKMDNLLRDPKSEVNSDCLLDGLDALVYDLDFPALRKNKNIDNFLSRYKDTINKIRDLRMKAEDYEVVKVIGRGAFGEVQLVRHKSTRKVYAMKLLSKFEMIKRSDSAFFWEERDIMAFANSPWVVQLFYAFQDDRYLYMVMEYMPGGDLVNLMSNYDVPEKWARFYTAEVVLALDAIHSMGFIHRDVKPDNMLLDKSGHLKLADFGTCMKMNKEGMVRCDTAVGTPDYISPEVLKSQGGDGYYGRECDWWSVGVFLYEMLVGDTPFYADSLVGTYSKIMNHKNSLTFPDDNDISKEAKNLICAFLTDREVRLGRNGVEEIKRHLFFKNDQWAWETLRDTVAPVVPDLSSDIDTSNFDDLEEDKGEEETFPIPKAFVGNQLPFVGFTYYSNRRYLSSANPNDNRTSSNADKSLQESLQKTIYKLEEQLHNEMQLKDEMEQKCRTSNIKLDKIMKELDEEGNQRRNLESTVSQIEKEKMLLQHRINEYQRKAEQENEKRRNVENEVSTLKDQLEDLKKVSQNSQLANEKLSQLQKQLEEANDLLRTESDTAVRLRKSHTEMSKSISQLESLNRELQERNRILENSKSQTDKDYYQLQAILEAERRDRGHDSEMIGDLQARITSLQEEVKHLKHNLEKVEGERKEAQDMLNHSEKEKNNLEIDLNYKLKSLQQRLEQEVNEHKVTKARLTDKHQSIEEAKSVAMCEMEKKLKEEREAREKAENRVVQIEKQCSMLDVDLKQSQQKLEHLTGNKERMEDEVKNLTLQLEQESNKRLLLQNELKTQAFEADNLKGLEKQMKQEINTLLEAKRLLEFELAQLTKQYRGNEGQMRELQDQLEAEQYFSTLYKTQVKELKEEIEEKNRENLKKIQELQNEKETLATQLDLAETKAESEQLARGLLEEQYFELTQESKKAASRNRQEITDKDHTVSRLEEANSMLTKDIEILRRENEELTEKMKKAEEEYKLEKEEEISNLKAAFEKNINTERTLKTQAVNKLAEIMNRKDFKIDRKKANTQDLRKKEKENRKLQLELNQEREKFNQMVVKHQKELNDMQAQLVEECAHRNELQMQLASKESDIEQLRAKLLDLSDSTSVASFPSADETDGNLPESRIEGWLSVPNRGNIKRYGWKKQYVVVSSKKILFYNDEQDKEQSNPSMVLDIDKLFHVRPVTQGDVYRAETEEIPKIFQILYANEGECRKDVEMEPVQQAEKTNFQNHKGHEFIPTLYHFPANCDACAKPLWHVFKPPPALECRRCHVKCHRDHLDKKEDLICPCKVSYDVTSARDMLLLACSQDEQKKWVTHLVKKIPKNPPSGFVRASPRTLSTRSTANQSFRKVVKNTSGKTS

RPS6KA2 KD1 KD2 (human) = RPS6KA2 KD1 KD2 (human) (UniProt Q15349)
Sequence of RPS6KA2 KD1 KD2 (human) (Q15349 whole entry, looked up): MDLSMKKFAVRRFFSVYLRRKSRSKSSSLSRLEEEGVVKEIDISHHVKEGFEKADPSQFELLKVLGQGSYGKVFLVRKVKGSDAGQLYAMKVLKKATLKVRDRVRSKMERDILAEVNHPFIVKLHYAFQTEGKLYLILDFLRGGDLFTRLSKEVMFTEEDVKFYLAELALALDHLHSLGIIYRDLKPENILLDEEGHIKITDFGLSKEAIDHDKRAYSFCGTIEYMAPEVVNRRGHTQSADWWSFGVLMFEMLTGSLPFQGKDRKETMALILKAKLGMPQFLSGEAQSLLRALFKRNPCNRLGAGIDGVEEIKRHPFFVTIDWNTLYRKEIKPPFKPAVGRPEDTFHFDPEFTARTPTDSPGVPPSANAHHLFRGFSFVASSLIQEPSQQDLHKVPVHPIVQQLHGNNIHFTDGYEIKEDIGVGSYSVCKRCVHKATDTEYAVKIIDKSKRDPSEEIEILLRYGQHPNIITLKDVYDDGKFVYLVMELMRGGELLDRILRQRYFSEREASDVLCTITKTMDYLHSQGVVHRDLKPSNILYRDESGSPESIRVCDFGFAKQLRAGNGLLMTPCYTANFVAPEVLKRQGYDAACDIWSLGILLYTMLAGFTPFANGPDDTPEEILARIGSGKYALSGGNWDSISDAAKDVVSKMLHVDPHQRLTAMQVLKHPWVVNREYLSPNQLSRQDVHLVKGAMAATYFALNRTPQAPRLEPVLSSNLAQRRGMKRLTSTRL

STK3 (human) = STK3 (human) (UniProt Q13188)
Sequence of STK3 (human) (Q13188 whole entry, looked up): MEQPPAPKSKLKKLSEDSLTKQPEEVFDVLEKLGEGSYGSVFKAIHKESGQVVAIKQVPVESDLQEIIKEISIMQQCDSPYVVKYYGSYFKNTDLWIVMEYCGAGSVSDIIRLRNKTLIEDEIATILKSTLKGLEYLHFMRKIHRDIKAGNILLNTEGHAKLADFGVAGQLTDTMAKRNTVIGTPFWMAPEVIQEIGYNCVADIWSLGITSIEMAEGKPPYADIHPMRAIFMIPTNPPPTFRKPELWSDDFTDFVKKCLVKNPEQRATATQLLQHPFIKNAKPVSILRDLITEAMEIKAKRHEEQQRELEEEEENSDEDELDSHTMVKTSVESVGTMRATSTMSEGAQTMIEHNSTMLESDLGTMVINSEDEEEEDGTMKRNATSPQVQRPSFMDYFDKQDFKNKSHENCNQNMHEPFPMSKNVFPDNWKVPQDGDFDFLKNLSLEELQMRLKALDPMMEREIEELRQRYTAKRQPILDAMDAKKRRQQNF

For `CN(c1ccc2ccc3ncc(-c4cnn(C)c4)cc3c(=O)c2c1)S(=O)(=O)NCc1ccccn1`, the inhibition (ABL2 (human); compound 0.1 µM) was -2.4%, the inhibition (ABL2 (human); compound 1.0 µM) was 18% and the inhibition (AKT1 (human); compound 0.1 µM) was -4.1%. It also gave an inhibition (AKT1 (human); compound 1.0 µM) of 6.2%, an inhibition (AKT2 (human); compound 0.1 µM) of -4.1% and an inhibition (AKT2 (human); compound 1.0 µM) of -15.8%. For the same molecule, the inhibition (ALK (human); compound 0.1 µM) was -0.1%, the inhibition (ALK (human); compound 1.0 µM) was 12.2% and the inhibition (AURKC (human); compound 0.1 µM) was 31.7%. The inhibition (AURKC (human); compound 1.0 µM) was 75.8%, the inhibition (CAMK2B (human); compound 0.1 µM) was 5.9% and the inhibition (CAMK2B (human); compound 1.0 µM) was 12.1%. The inhibition (CAMK2D (human)) was -1.3%, the inhibition (CDK1 (human); compound 0.1 µM) was 1.3% and the inhibition (CDK1 (human); compound 1.0 µM) was 4.7%. The inhibition (CDK2 (human); compound 0.1 µM) was 3.1%, the inhibition (CDK2 (human); compound 1.0 µM) was 4.8% and the inhibition (CDK5 CDK5R1 p25 (human); compound 0.1 µM) was -5.4%. It also gave an inhibition (CDK5 CDK5R1 p25 (human); compound 1.0 µM) of 11.9%, an inhibition (CHEK2 (human); compound 0.1 µM) of -1.5% and an inhibition (CHEK2 (human); compound 1.0 µM) of 6.9%. For the same molecule, the inhibition (DCLK2 (human); compound 0.1 µM) was 8.6%, the inhibition (DCLK2 (human); compound 1.0 µM) was 4.1% and the inhibition (DYRK4 (human); compound 0.1 µM) was 16.9%. For the same molecule, the inhibition (DYRK4 (human); compound 1.0 µM) was 1.3%, the inhibition (EPHB1 (human); compound 0.1 µM) was 1.8% and the inhibition (EPHB1 (human); compound 1.0 µM) was 9.7%. For the same molecule, the inhibition (FGFR3 (human); compound 0.1 µM) was 26.3%, the inhibition (FGFR3 (human); compound 1.0 µM) was 81% and the inhibition (FLT3 (human); compound 0.1 µM) was 13.7%. It also gave an inhibition (FLT3 (human); compound 1.0 µM) of 62.9%, an inhibition ([1]; compound 0.1 µM) of 49.8% and an inhibition ([1]; compound 1.0 µM) of 86.5%. The inhibition (JAK2 JH1 JH2 (human); compound 0.1 µM) was -35.1%, the inhibition (JAK2 JH1 JH2 (human); compound 1.0 µM) was 41.2% and the inhibition (LYN (human); compound 0.1 µM) was 2.5%. It also gave an inhibition (LYN (human); compound 1.0 µM) of 25.1%, an inhibition (MAPK1 (human); compound 0.1 µM) of -4% and an inhibition (MAPK1 (human); compound 1.0 µM) of 1.8%. The inhibition (MAPK12 (human); compound 0.1 µM) was -6%, the inhibition (MAPK12 (human); compound 1.0 µM) was 0.4% and the inhibition (MAPK13 (human); compound 0.1 µM) was -0.3%. It also gave an inhibition (MAPK13 (human); compound 1.0 µM) of 9.8%, an inhibition (MAPKAPK3 (human); compound 0.1 µM) of -0.1% and an inhibition (MAPKAPK3 (human); compound 1.0 µM) of -2.3%. It also gave an inhibition (MAPKAPK5 (human); compound 0.1 µM) of 10.5%, an inhibition (MAPKAPK5 (human); compound 1.0 µM) of 3% and an inhibition (MARK2 (human); compound 0.1 µM) of -3.7%. The inhibition (MARK2 (human); compound 1.0 µM) was 12.6%, the inhibition (MERTK (human); compound 0.1 µM) was 52.7% and the inhibition (MERTK (human); compound 1.0 µM) was 94.5%. For the same molecule, the inhibition (PIM2 (human); compound 0.1 µM) was 1.2%, the inhibition (PIM2 (human); compound 1.0 µM) was 5.1% and the inhibition (PRKCD (human); compound 0.1 µM) was -0.8%. The inhibition (PRKCD (human); compound 1.0 µM) was 2.2%, the inhibition (PRKD3 (human); compound 0.1 µM) was 8% and the inhibition (PRKD3 (human); compound 1.0 µM) was 9.4%. It also gave an inhibition (PTK2B (human); compound 0.1 µM) of -3.9%, an inhibition (PTK2B (human); compound 1.0 µM) of 3.2% and an inhibition (ROCK1 (human); compound 0.1 µM) of 14.4%. It also gave an inhibition (ROCK1 (human); compound 1.0 µM) of 1.7%, an inhibition (RPS6KA2 KD1 KD2 (human); compound 0.1 µM) of -5.9% and an inhibition (RPS6KA2 KD1 KD2 (human); compound 1.0 µM) of 9.6%. The inhibition (STK3 (human); compound 0.1 µM) was -6% and the inhibition (STK3 (human); compound 1.0 µM) was 7.6%.
